Measured values as given in ChEMBL document CHEMBL3784999, “Investigation of 4-amino-5-alkynylpyrimidine-2(1H)-ones as anti-mycobacterial agents” (Bioorg Med Chem, 2016).
≈ marks a conversion by molar mass, not a printed value. Calls of active or inactive are those of the source. No cut-off for these calls is given here.

Key:
[1] = tested on: Mycobacterium tuberculosis; experiment: Antimycobacterial activity against rifampicin resistant Mycobacterium tuberculosis H37Rv ATCC 35838; type: functional
[2] = tested on: Mycobacterium tuberculosis; experiment: Antimycobacterial activity against rifampicin resistant Mycobacterium tuberculosis H37Rv ATCC 35838 at 1 ug/ml; type: functional
[3] = tested on: Mycobacterium tuberculosis; experiment: Antimycobacterial activity against rifampicin resistant Mycobacterium tuberculosis H37Rv ATCC 35838 at 2 ug/ml; type: functional, organism-based

With `CCCCCC#Cc1c[nH]c(=O)nc1N` the MIC50 [1] was 12.5 µg/mL (≈ 60.9 µM).
Work on `NNC(=O)c1ccncc1` [ISONIAZID] yielded an inhibition at 1 µg/mL [2] of 100%.
In the case of `CO[C@H]1/C=C/O[C@@]2(C)Oc3c(C)c(O)c4c(O)c(c(/C=N/N5CCN(C)CC5)c(O)c4c3C2=O)NC(=O)/C(C)=C\C=C\[C@H](C)[C@H](O)[C@@H](C)[C@@H](O)[C@@H](C)[C@H](OC(C)=O)[C@@H]1C` [RIFAMPIN], the Activity [3] is reported as “inactive”.
